Measurements as given in patent publication US12721840B2, “Methods of treating glioblastoma multiforme using combination therapy” (MediciNova, Inc., priority 2021, dated 2026).

How the values were obtained:
[1] = tested on: GBM orthotopic tumors (SB28 cells); assay: Murine GBM model: survival of mice bearing orthotopic syngeneic SB28 tumors; format: in vivo; settings: syngeneic mouse model, 20,000 SB28 cells; ibudilast 50 mg/kg, anti-PD1 25 μg/dose; 3 intraperitoneal injections 3 days apart from day 7 post-engraftment; n=10 male mice/group; control 17 days
Procedure: FIGURE depicts results from a murine glioblastoma model (ibudilast treatment in a syngeneic mouse model (20,000 SB28 cells) synergized with anti-PD1), in which mice are treated with ibudilast, an anti-PD-1 antibody, or a combination of ibudilast and an anti-PD-1 antibody. Isotype serves as negative control for the anti-PD-1 antibody and vehicle serves as negative control for ibudilast. Treatment was initiated at day 7 post-engraftment with 3 intraperitoneal injections 3 days apart; n=10 mice/group (male); median survival provided for each group, *p<0.05, **p<0.01, ***p<0.001 as assessed by log-rank (colored stars indicate comparison to each control group).
Mice bearing GBM orthotopic tumors were subjected to treatment with a PD-1 antibody in the presence or absence of ibudilast (or to ibudilast alone) and evaluated for their survival after the start of treatment. More particularly, ibudilast treatment (50 mg/kg) was performed in a syngeneic mouse model (20,000 SB28 cells) synergized with anti-PD1 (25 μg/dose). Treatment was initiated at day 7 post-engraftment with 3 intraperitoneal injections 3 days apart; n=10 mice/group (male).

[2] = literature statement (Sanftner et al Xenobiotica 2009; Chen et al. 2002); cited from earlier work

## CC(C)C(=O)c1c(C(C)C)nn2ccccc12 [Ibudilast, 3-isobutyryl-2-isopropylpyrazolo[1,5-a]pyridine]
[1]
  median survival: did not impact median survival
[2]
  penetration into the central nervous system (CNS): good CNS penetration

## COc1ccc(C2CNC(=O)C2)cc1OC1CCCC1 (stereo not drawn) [rolipram]
[2]
  penetration into the central nervous system (CNS): poor penetration into the central nervous system
